The source of these data is ChEMBL document CHEMBL1773036, “Scalarane sesterterpenes from the sponge Hyatella sp” (J Nat Prod, 2011).

Converted amounts (≈) assume the structure as drawn. Where only a bound is given, the exact number is not on record here.

One assay has as its system K562. The experiment in a line: Cytotoxicity against human K562 cells by MTT assay. Type of assay: functional. The conditions noted are these: read-out: LC50 (the source's name). In general terms: Tetrazolium assays rely on reduction of a dye to a coloured formazan, in cell work by metabolically active cells.
A further assay concerns Escherichia coli. The experiment in a line: Antibacterial activity against Escherichia coli ATCC 25922 after 24 hrs by twofold serial dilution method. The conditions noted are these: ATCC 25922, 24 h. Type of assay: functional.
The subject of the next assay is Proteus vulgaris. Description: Antibacterial activity against Proteus vulgaris ATCC 3851 after 24 hrs by twofold serial dilution method. Type of assay: functional. The conditions noted are these: ATCC 3851, 24 h.
A further assay concerns Salmonella typhimurium. Description: Antibacterial activity against Salmonella typhimurium ATCC 14028 after 24 hrs by twofold serial dilution method. Type of assay: functional, Salmonella enterica subsp. enterica serovar Typhimurium. The conditions noted are these: Salmonella enterica, ATCC 14028, 24 h.
The next assay deals with Micrococcus luteus. The experiment in a line: Antibacterial activity against Micrococcus luteus IFO 12708 after 24 hrs by twofold serial dilution method. Type of assay: functional. The following applies: IFO 12708, 24 h.
The subject of a further assay is Bacillus subtilis. The experiment in a line: Antibacterial activity against Bacillus subtilis ATCC 6633 after 24 hrs by twofold serial dilution method. Type of assay: functional. The conditions noted are these: ATCC 6633, 24 h.
The subject of the next assay is Staphylococcus aureus. Description: Antibacterial activity against Staphylococcus aureus ATCC 6538p after 24 hrs by twofold serial dilution method. Type of assay: functional.
The nature of assay [1]: Inhibition of Magnaporthe grisea Guy 11 isocitrate lyase. More on the design: species or system Pyricularia oryzae.

In general, MIC refers to the least concentration at which growth counts as inhibited. A higher MIC goes with weaker potency. Turning to `CC(=O)OC[C@]12CCCC(C)(C)[C@@H]1CC[C@]1(C)[C@@H]2C[C@@H](OC(C)=O)[C@]2(C)[C@@H]3C(=CC[C@@H]12)CO[C@H]3O`, the CC50 in the assay with K562 turned out to be 39.5 µM. The MIC against Escherichia coli is greater than 100 µg/mL; with Proteus vulgaris, 3.12 µg/mL (≈ 6.39 µM); in the assay on Salmonella typhimurium, greater than 100 µg/mL; with Micrococcus luteus it was greater than 100 µg/mL; against Bacillus subtilis, 0.78 µg/mL (≈ 1.6 µM); in the assay with Staphylococcus aureus, greater than 100 µg/mL.

For orientation: IC50 means the point on the concentration scale where inhibition reaches its midpoint. A higher IC50 goes with weaker potency. Consider `CO[C@@H]1OC(=O)C2=CC[C@H]3[C@]4(C)CC[C@H]5C(C)(C)CCC[C@]5(C)[C@H]4C[C@@H](OC(C)=O)[C@]3(C)[C@H]21`, for which the CC50 with K562 was determined as 38.4 µM. Moreover, the MIC in the assay on Escherichia coli, against Proteus vulgaris, with Salmonella typhimurium, in the assay on Micrococcus luteus, with Bacillus subtilis and in the assay on Staphylococcus aureus was greater than 100 µg/mL each time. In assay [1], this molecule showed a 50% inhibitory concentration (IC50) of 40.8 µM.

As for `CO[C@@H]1OCC2=CC[C@H]3[C@]4(C)CC[C@H]5C(C)(C)CCC[C@]5(C)[C@H]4C[C@@H](O)[C@]3(C)[C@H]21`, the CC50 in the assay with K562 is 24.6 µM. Further, the MIC against Escherichia coli, in the assay with Proteus vulgaris, in the assay on Salmonella typhimurium, against Micrococcus luteus, with Bacillus subtilis and against Staphylococcus aureus was greater than 100 µg/mL in each case.

Regarding `CC(=O)OC[C@]12CCCC(C)(C)[C@@H]1CC[C@]1(C)[C@@H]2C[C@@H](O)[C@]2(C)[C@@H]3C(=CC[C@@H]12)CO[C@H]3O`, the CC50 in the assay with K562 is 19.5 µM. Besides, the MIC against Escherichia coli was greater than 100 µg/mL; in the assay with Proteus vulgaris, 12.6 µg/mL (≈ 28.2 µM); with Salmonella typhimurium, 12.5 µg/mL (≈ 28 µM); with Micrococcus luteus, 12.5 µg/mL (≈ 28 µM); in the assay with Bacillus subtilis, 6.25 µg/mL (≈ 14 µM); against Staphylococcus aureus, 25 µg/mL (≈ 56 µM). The IC50 in assay [1] worked out at 107 µM.

For `CO[C@@H]1OCC2=CC[C@H]3[C@]4(C)CC[C@H]5C(C)(C)CCC[C@]5(C)[C@H]4C[C@@H](OC(C)=O)[C@]3(C)[C@H]21`, the CC50 in the assay on K562 was greater than 100 µM. The MIC with Escherichia coli, with Proteus vulgaris, against Salmonella typhimurium, against Micrococcus luteus, against Bacillus subtilis and in the assay on Staphylococcus aureus was greater than 100 µg/mL each time.

As for `CO[C@@H]1C[C@H]2[C@]3(C)CC[C@H]4C(C)(C)CCC[C@]4(C)[C@H]3C[C@@H](OC(C)=O)[C@]2(C)C2=C1C(=O)N(CC(=O)[O-])[C@H]2OC.[Na+]`, the CC50 in the assay on K562 came out at 27 µM. Further, the MIC with Escherichia coli was 100 µg/mL; with Proteus vulgaris it was 25 µg/mL; in the assay on Salmonella typhimurium, 50 µg/mL; with Micrococcus luteus, 25 µg/mL; against Bacillus subtilis, 6.25 µg/mL; against Staphylococcus aureus, 50 µg/mL. Also, in assay [1], half-maximal inhibition (IC50) required 176 µM.

Turning to `C[C@@]1(CO)CCC[C@]2(C)[C@H]3C[C@@H](O)[C@]4(C)[C@H]5COC(=O)C5=CC[C@H]4[C@]3(C)CC[C@@H]12`, the CC50 in the assay with K562 stood at 31.1 µM. Besides, the MIC with Escherichia coli, in the assay on Proteus vulgaris, in the assay with Salmonella typhimurium, against Micrococcus luteus, against Bacillus subtilis and against Staphylococcus aureus was greater than 100 µg/mL each time. This molecule also showed an IC50 in assay [1] of 133 µM.

As for `CC(=O)O[C@@H]1C[C@@H]2[C@@]3(C)CCCC(C)(C)[C@@H]3CC[C@@]2(C)[C@@H]2CC=C3C(=O)O[C@@H](O)[C@@H]3[C@@]12C`, the CC50 with K562 worked out at 28.3 µM. The MIC in the assay with Escherichia coli is greater than 100 µg/mL; with Proteus vulgaris, 6.25 µg/mL (≈ 14.1 µM); against Salmonella typhimurium, greater than 100 µg/mL; in the assay with Micrococcus luteus, greater than 100 µg/mL; in the assay with Bacillus subtilis, 6.25 µg/mL (≈ 14.1 µM); against Staphylococcus aureus, greater than 100 µg/mL. Moreover, in assay [1], the IC50 was 112 µM.

For `O=C(O)CC[N+](=O)[O-]`, inhibition in assay [1] was half-maximal at 27.9 µM (IC50).

Regarding `CO[C@@H]1C[C@H]2[C@]3(C)CC[C@H]4C(C)(C)CCC[C@]4(C)[C@H]3C[C@@H](OC(C)=O)[C@]2(C)C2=C1C(=O)O[C@H]2O`, the CC50 in the assay with K562 was determined as 36.7 µM. Also, the minimum inhibitory concentration (MIC) against Escherichia coli came out at 50 µg/mL (≈ 105 µM); in the assay on Proteus vulgaris it was 3.12 µg/mL (≈ 6.58 µM); with Salmonella typhimurium it was 12.5 µg/mL (≈ 26.3 µM); in the assay with Micrococcus luteus it was 25 µg/mL (≈ 52.7 µM); in the assay with Bacillus subtilis it was 0.78 µg/mL (≈ 1.64 µM); in the assay on Staphylococcus aureus it was 25 µg/mL (≈ 52.7 µM).

For `CC(=O)O[C@@H]1C[C@@H]2[C@@]3(C)CCCC(C)(C)[C@@H]3CC[C@@]2(C)[C@@H]2CC=C3CO[C@@H](O)[C@@H]3[C@@]12C`, the CC50 in the assay on K562 came to 31.3 µM. In addition, the MIC in the assay with Escherichia coli, in the assay on Proteus vulgaris, against Salmonella typhimurium, against Micrococcus luteus, with Bacillus subtilis and in the assay on Staphylococcus aureus was greater than 100 µg/mL in each case. The molecule further showed an IC50 in assay [1] of 55.3 µM.

Regarding `CO[C@@H]1C[C@H]2[C@]3(C)CC[C@H]4C(C)(C)CCC[C@]4(C)[C@H]3C[C@@H](OC(C)=O)[C@]2(C)C2=C1[C@H](O)OC2=O` (mixture of isomers), the CC50 with K562 is 14.8 µM. Further, the MIC with Escherichia coli was greater than 100 µg/mL; against Proteus vulgaris, 1.56 µg/mL; against Salmonella typhimurium, 12.5 µg/mL; against Micrococcus luteus, 25 µg/mL; in the assay with Bacillus subtilis, less than 0.39 µg/mL; with Staphylococcus aureus, 25 µg/mL.

In the case of `CC1(C)S[C@@H]2[C@H](NC(=O)[C@H](N)c3ccccc3)C(=O)N2[C@H]1C(=O)O` [AMPICILLIN], the MIC against Escherichia coli amounted to 6.25 µg/mL (≈ 17.9 µM); against Proteus vulgaris, 1.56 µg/mL (≈ 4.46 µM); against Salmonella typhimurium, 1.56 µg/mL (≈ 4.46 µM); in the assay on Micrococcus luteus, 0.39 µg/mL (≈ 1.12 µM); in the assay on Bacillus subtilis it was 0.78 µg/mL (≈ 2.23 µM); with Staphylococcus aureus, 1.56 µg/mL (≈ 4.46 µM).

Turning to `COc1cccc2c1C(=O)c1c(O)c3c(c(O)c1C2=O)C[C@@](O)(C(=O)CO)C[C@@H]3O[C@H]1C[C@H](N)[C@H](O)[C@H](C)O1` [DOXORUBICIN], in the assay on K562, the CC50 came out at 9.7 µM.
